Measured values from the NIST ThermoML archive (doi:10.1016/j.tca.2016.07.019).

Experiment: wn = mass fraction of the nth substance listed
Details: 100 kPa, Liquid

O=C([O-])[C@@H]1CCCN1.[K+] [potassium L-prolinate] + O
mass density [kg/m3]
Details | 293.15 K | 303.15 K | 313.15 K | 323.15 K
w1 = 0.01 | 1007.1 | 1004.3 | 1001.6 | 997.9
w1 = 0.04 | 1023.4 | 1019.6 | 1016.1 | 1009.5
w1 = 0.1 | 1047.2 | 1042.8 | 1037.9 | 1026.7
